The record followed here is the NIST ThermoML archive (doi:10.1016/j.fluid.2019.02.006).

Numbers after ± are expanded uncertainties.

The nature of series [1]: xn = mol fraction of the nth substance listed. The conditions noted are these: 298.15 K, 100 kPa, Liquid, Vibrating tube method.
For series [2] the following is noted: 298.15 K; 100 kPa; Liquid; Vibrating tube method.

By mass density is commonly meant the mass of a sample divided by its volume. As for `CCCCCCCCCO` [nonan-1-ol] + C1CCCCC1, the mass density turned out to be 824 ± 1 kg/m3 in series [1] (x2 = 0); 821.1 ± 1 kg/m3 in series [1] (x2 = 0.0817); 818 ± 1 kg/m3 in series [1] (x2 = 0.1605); 814.7 ± 1 kg/m3 in series [1] (x2 = 0.2409); 810 ± 1 kg/m3 in series [1] (x2 = 0.3496); 805.8 ± 1 kg/m3 in series [1] (x2 = 0.4399). The mass density in series [1] (x2 = 0.5606) is listed as 799.8 ± 1 kg/m3; in series [1] (x2 = 0.6497), 795.1 ± 1 kg/m3; in series [1] (x2 = 0.7406), 790 ± 1 kg/m3; in series [1] (x2 = 0.8497), 783.6 ± 1 kg/m3; in series [1] (x2 = 0.9403), 777.8 ± 1 kg/m3.
Take `CCCCCCCCCCO` [decan-1-ol] + C1CCCCC1: the mass density in series [1] (x2 = 0) is 826.1 ± 1 kg/m3; in series [1] (x2 = 0.0819) it was 823.7 ± 1 kg/m3; in series [1] (x2 = 0.1596), 820.8 ± 1 kg/m3; in series [1] (x2 = 0.2401) it was 817.6 ± 1 kg/m3; in series [1] (x2 = 0.3482), 812.9 ± 1 kg/m3; in series [1] (x2 = 0.4395) it was 808.7 ± 1 kg/m3. Besides, the mass density came to 802.6 ± 1 kg/m3 in series [1] (x2 = 0.5598); 797.6 ± 1 kg/m3 in series [1] (x2 = 0.6498); 792.3 ± 1 kg/m3 in series [1] (x2 = 0.7404); 785.2 ± 1 kg/m3 in series [1] (x2 = 0.849); 778.6 ± 1 kg/m3 in series [1] (x2 = 0.9394).
With `C1CCCCC1` [cyclohexane] + CCCCCCCCO, in series [1] (x1 = 1), the mass density is given as 773.6 ± 1 kg/m3.
On to `CCCCCCCCO` [octan-1-ol], for which, in series [2], the mass density is given as 821.4 ± 1 kg/m3.
Regarding `C1CCCCC1` [cyclohexane] + CCCCCCCCCO, the mass density in series [1] (x1 = 1) was determined as 773.6 ± 1 kg/m3.
With `CCCCCCO` [hexan-1-ol] + C1CCCCC1, the mass density is 815.1 ± 1 kg/m3 in series [1] (x2 = 0); 811.6 ± 1 kg/m3 in series [1] (x2 = 0.0811); 808.2 ± 1 kg/m3 in series [1] (x2 = 0.1597); 804.6 ± 1 kg/m3 in series [1] (x2 = 0.2415); 799.8 ± 1 kg/m3 in series [1] (x2 = 0.3498); 795.8 ± 1 kg/m3 in series [1] (x2 = 0.4412). Moreover, the mass density in series [1] (x2 = 0.5588) amounted to 790.7 ± 1 kg/m3; in series [1] (x2 = 0.65), 786.8 ± 1 kg/m3; in series [1] (x2 = 0.7404), 783.2 ± 1 kg/m3; in series [1] (x2 = 0.8499) it was 778.8 ± 1 kg/m3; in series [1] (x2 = 0.9398), 775.6 ± 1 kg/m3.
`C1CCCCC1` [cyclohexane] + CCCCCCCCCCO: the mass density in series [1] (x1 = 1) amounted to 773.6 ± 1 kg/m3.
For `CCCCCCCCO` [octan-1-ol] + C1CCCCC1, the mass density is on record as 821.4 ± 1 kg/m3 in series [1] (x2 = 0); 818.3 ± 1 kg/m3 in series [1] (x2 = 0.0815); 815.1 ± 1 kg/m3 in series [1] (x2 = 0.1602); 811.7 ± 1 kg/m3 in series [1] (x2 = 0.2408); 806.9 ± 1 kg/m3 in series [1] (x2 = 0.3494); 802.7 ± 1 kg/m3 in series [1] (x2 = 0.4398). Moreover, the mass density in series [1] (x2 = 0.5605) stood at 796.8 ± 1 kg/m3; in series [1] (x2 = 0.6496) it was 792.4 ± 1 kg/m3; in series [1] (x2 = 0.7404), 787.8 ± 1 kg/m3; in series [1] (x2 = 0.8495), 782 ± 1 kg/m3; in series [1] (x2 = 0.94), 777 ± 1 kg/m3.
Turning to `CCCCCCCO` [heptan-1-ol], in series [2], the mass density came to 818.7 ± 1 kg/m3.
With `CCCCCO` [pentan-1-ol] + C1CCCCC1, the mass density is given as 810.8 ± 1 kg/m3 in series [1] (x2 = 0); 807.1 ± 1 kg/m3 in series [1] (x2 = 0.081); 803.6 ± 1 kg/m3 in series [1] (x2 = 0.1607); 800.1 ± 1 kg/m3 in series [1] (x2 = 0.2403); 795.4 ± 1 kg/m3 in series [1] (x2 = 0.3487); 791.7 ± 1 kg/m3 in series [1] (x2 = 0.4396). For the same molecule, the mass density in series [1] (x2 = 0.5597) amounted to 787 ± 1 kg/m3; in series [1] (x2 = 0.6498) it was 783.7 ± 1 kg/m3; in series [1] (x2 = 0.7408) it was 780.6 ± 1 kg/m3; in series [1] (x2 = 0.8499) it was 777.1 ± 1 kg/m3; in series [1] (x2 = 0.9406), 774.8 ± 1 kg/m3.
For `CCCCCCCCCO` [nonan-1-ol], the mass density in series [2] is recorded as 824 ± 1 kg/m3.
For `C1CCCCC1` [cyclohexane], the mass density in series [2] is on record as 773.6 ± 1 kg/m3.
The same measure, in the same setting: to `CCCCCCCCCCO` [decan-1-ol] belongs 826.1 ± 1 kg/m3.
Same read-out and setting: the figure for `CCCCCO` [pentan-1-ol] is 810.8 ± 1 kg/m3.
Turning to `C1CCCCC1` [cyclohexane] + CCCCCCO, the mass density in series [1] (x1 = 1) amounted to 773.6 ± 1 kg/m3.
With `CCCCCCO` [hexan-1-ol], in series [2], the mass density amounted to 815.1 ± 1 kg/m3.
For `CCCCCCCO` [heptan-1-ol] + C1CCCCC1, the mass density in series [1] (x2 = 0) came out at 818.7 ± 1 kg/m3; in series [1] (x2 = 0.0805) it was 815.5 ± 1 kg/m3; in series [1] (x2 = 0.1601), 812.1 ± 1 kg/m3; in series [1] (x2 = 0.2392), 808.7 ± 1 kg/m3; in series [1] (x2 = 0.3503) it was 803.7 ± 1 kg/m3; in series [1] (x2 = 0.4391), 799.7 ± 1 kg/m3. Moreover, the mass density in series [1] (x2 = 0.5604) was 794 ± 1 kg/m3; in series [1] (x2 = 0.6502), 789.8 ± 1 kg/m3; in series [1] (x2 = 0.7396), 785.7 ± 1 kg/m3; in series [1] (x2 = 0.8497), 780.5 ± 1 kg/m3; in series [1] (x2 = 0.94), 776.4 ± 1 kg/m3.
As to `C1CCCCC1` [cyclohexane] + CCCCCO, the mass density in series [1] (x1 = 1) was determined as 773.6 ± 1 kg/m3.
Same read-out and setting: the figure for `C1CCCCC1` [cyclohexane] + CCCCCCCO is 773.6 ± 1 kg/m3.
